Data: patent publication US5939403A, “Keratan sulfate oligosaccharide fraction and pharmaceutical containing the same” (Seikagaku Corporation, priority 1994, dated 1999)
Where a name gives a salt, the structure may show the parent alone.

What was measured:
[1] = tested on: mesenteric lymph node and submandibular lymph node; test: Cell differentiation induction: staining concentration of lymph node sections (HE staining); assay type: in vivo, MRL-lpr/lpr mice; conditions: four weeks
Procedure: The PBS solution of the purified keratan sulfate disaccharide (III) which was prepared in Example 1 described above at a dose of 1 mg/kg, 5 mg/kg, or 25 mg/kg weight (hereinafter referred to as the 1 mg/kg administered group, the 5 mg/kg administered group, and the 25 mg/kg administered group, respectively), and PBS as the control (hereinafter sometimes referred to as the control group) was intramuscularly injected, respectively, to the femoral region of MRL-lpr/lpr mice seven times a week for four weeks. After that, the mice were subjected to anatomization to prepare the section specimens (HE staining) of mesenteric lymph node and submandibular lymph node. The staining concentrations per unit area of the specimens were analyzed by an image analyzer (PIAS). In the undifferentiated cells, the staining concentration per unit area is low because proportion of the cytoplasm is high and the nuclei is stained thinly. In the differentiated cells, the staining concentration per unit area is high because proportion of the nuclei is high and it is stained thickly.
The results of the analysis of mesenteric lymph nodes and submandibular lymph nodes are shown in FIG. 17 and FIG. 18 with the standard errors, respectively. In the figures, ** represents that it has the significant difference with p<0.01 (wherein "p" means a level of significance by the Bonferroni multiple comparative test). […]

submandibular lymph node = test: Apoptosis induction: TdT-mediated nick end labeling of submandibular lymph node; assay type: in vivo, MRL-lpr/lpr mice; conditions: four weeks
Procedure: The PBS solution of the purified keratan sulfate disaccharide (III) which was prepared in Example 1 described above at a dose of 1 mg/kg, 5 mg/kg, or 25 mg/kg weight (hereinafter referred to as the 1 mg/kg administered group, the 5 mg/kg administered group, and the 25 mg/kg administered group, respectively), and PBS as the control (hereinafter sometimes referred to as the control group) was intramuscularly injected, respectively, to the femoral region of MRL-lpr/lpr mice seven times a week for four weeks. After that, the mice were subjected to anatomization to prepare the section specimens of submandibular lymph node (stained by the method of Gavrieli et al.; Terminal deoxynucleotidyl transferase (TdT)--mediated nick end labeling method; (J. Cell Biol., 119, 493-501 (1992))). In this staining method, apoptosis induced cells can be detected by detecting fragmented DNA ends. The specimens prepared was observed by a light microscope to determine the number of stained cells (the apoptosis induced cells; hereinafter sometimes referred to as the apoptosis cells) per unit area. In the figure, * and ** represent that they have the significant difference with p<0.05 and p<0.01, respectively (wherein "p" means a level of significance by the Bonferroni multiple comparative test). In each group, six mice were used.

MRL-lpr/lpr mice [2] = test: Repeated intramuscular administration for 56 days in MRL mice (lymph node weight); assay type: in vivo
Procedure: (§1) The effect of the keratan sulfate oligosaccharide was examined on MRL mice which are autoimmune disease model mice.
The PBS solution of the purified keratan sulfate disaccharide (III) which was prepared in Example 1 described above at a dose of 2.5 mg/kg, 5 mg/kg, or 10 mg/kg weight (hereinafter referred to as the 2.5 mg/kg administered group, the 5 mg/kg administered group, and the 10 mg/kg administered group, respectively), and PBS as the control (hereinafter sometimes referred to as the control group) was intramuscularly injected, respectively, to the femoral region of MRL-lpr/lpr mice seven times a week for eight weeks. After that, the mice were subjected to anatomization, and the weight of mesenteric lymph nodes and submandibular lymph nodes were determined to obtain the average weight, respectively. The results concerning mesenteric lymph nodes and submandibular lymph nodes are shown in FIG. 15 and FIG. 16 with the standard errors, respectively. In each group, seven mice were used.

lymphocytes = test: Cell differentiation induction: lymphocyte surface antigen of lymph node; assay type: in vivo, MRL-lpr/lpr mice; conditions: 10 mg/kg i.m., eight weeks; vs control, 2.5 and 5 mg/kg
Procedure: The PBS solution of the purified keratan sulfate disaccharide (III) which was prepared in Example 1 described above at a dose of 2.5 mg/kg, 5 mg/kg, or 10 mg/kg weight (hereinafter referred to as the 2.5 mg/kg administered group, the 5 mg/kg administered group, and the 10 mg/kg administered group, respectively), and PBS as the control (hereinafter sometimes referred to as the control group) was intramuscularly injected, respectively, to the femoral region of MRL-lpr/lpr mice seven times a week for eight weeks. After that, the mice were subjected to anatomization, and the lymph nodes were minced on a cell strainer (Falcon 2350) to prepare the lymphocyte. The lymphocyte prepared of each group was subjected to the double immune staining with the anti-CD3 antibody (Seikagaku Corporation) and the anti-CD4 antibody (Pharminjen), that with the anti-CD3 antibody and the anti-CD8a antibody (Pharminjen), and that with the anti-CD3 antibody and the anti-B220 antibody (Pharminjen), respectively. The CD3, CD4, and CDBa are cell surface antigens which are expressed on T cells, and the B220 is that expressed on B cells. And it is known that no expression of these cell surface antigens is observed on null lymphocytes.
The proportion (%) of the CD3 and CD4 positive cells (hereinafter sometimes referred to as "the CD3+CD4+cells"; mainly helper T cells) to all the lymphocytes and the standard errors are shown in FIG. 19, that of the CD3 and CD8a positive cells (hereinafter sometimes referred to as "the CD3+CD8a+cells"; mainly suppressor T cells and cytotoxic T cells) and the standard errors are shown in FIG. 20, and that of the CD3 and B220 positive cells (hereinafter sometimes referred to as "the CD3+B220+cells";abnormal T cells having the surface antigens of B cells) and the standard errors are shown in FIG. 21. In the figures, * represents that it has the significant difference with p<0.05 (wherein "p" means a level of significance by the Ryan multiple comparative test). In each group, seven mice were used.

MRL-lpr/lpr mice [3] = test: Repeated intramuscular administration for four weeks in MRL mice (spleen and mesenteric lymph node weight); assay type: in vivo
Procedure: as §1
The PBS solution of the purified keratan sulfate tetrasaccharide (I) (100 mg/ml) which was prepared in Example 1 described above at a dose of 10 mg/kg weight (hereinafter referred to as the administered group), and PBS as the control was intramuscularly injected, respectively, to the femoral region of MRL-lpr/lpr mice five times a week for four weeks. After that, the mice were subjected to anatomization, and the weight of spleens and mesenteric lymph nodes were determined to obtain the average weight. In the table, "n" represents the number of mice used.

SMILES | staining concentration per unit area (FIG. 17, FIG. 18) ([1]; 5 mg/kg and 25 mg/kg i.m., p<0.01) | staining concentration per unit area (FIG. 17, FIG. 18) ([1]; any dose (1, 5, 25 mg/kg i.m.)) | number of the apoptosis cells (FIG. 22) (submandibular lymph node; 5 mg/kg i.m.) | number of the apoptosis cells (FIG. 22) (submandibular lymph node; any dose (1, 5, 25 mg/kg i.m.)) | weight increase in mesenteric lymph nodes (FIG. 15) (MRL-lpr/lpr mice [2]; 2.5 mg/kg i.m.) | weight increase in mesenteric lymph nodes and submandibular lymph nodes (FIG. 15, FIG. 16) (MRL-lpr/lpr mice [2]; 10 mg/kg i.m.) | proportion of CD3+B220+ cells (FIG. 21) (lymphocytes) | proportion of CD3+CD4+ cells (FIG. 19) (lymphocytes) | proportion of CD3+CD8a+ cells (FIG. 20) (lymphocytes) | weight increase in spleens and mesenteric lymph nodes (result in words) (MRL-lpr/lpr mice [3]; 10 mg/kg i.m.) | Spleen Weight (MRL-lpr/lpr mice [3]; 10 mg/kg i.m. five times a week, n = 9, mean ± standard error, control 1013 ± 233) [mg] | Mesenteric Lymph Node Weight (MRL-lpr/lpr mice [3]; 10 mg/kg i.m. five times a week, n = 9, mean ± standard error, control 1563 ± 352) [mg]
CC(=O)N[C@H]1C(O)O[C@H](COS(=O)(=O)O)[C@@H](O[C@@H]2O[C@H](COS(=O)(=O)O)[C@H](O)[C@H](O)[C@H]2O)[C@@H]1O (stereo partly drawn) [keratan sulfate disaccharide (III), Gal(6S)β1-4GlcNAc(6S)] | the staining concentrations increased significantly compared with the control group | an increase in the staining concentration per unit area (decrease in relative lightness) was observed | the number of the apoptosis cells increased significantly to the control group | an increase in the number of the apoptosis cells was observed | a suppressive effect on the weight increase in mesenteric lymph nodes was observed | that in mesenteric lymph nodes and submandibular lymph nodes were observed | decreased | increased significantly | increased |  |  | 
CC(=O)N[C@H]1[C@H](O[C@H]2[C@@H](O)[C@@H](COS(=O)(=O)O)O[C@@H](O[C@H]3[C@H](O)[C@@H](NC(C)=O)C(O)O[C@@H]3COS(=O)(=O)O)[C@@H]2O)O[C@H](COS(=O)(=O)O)[C@@H](O[C@@H]2O[C@H](COS(=O)(=O)O)[C@H](O)[C@H](O)[C@H]2O)[C@@H]1O (stereo partly drawn) [keratan sulfate tetrasaccharide (I), Gal(6S)β1-4GlcNAc(6S)β1-3Gal(6S)β1-4GlcNAc(6S)] |  |  |  |  |  |  |  |  |  | a suppressive tendency for the weight increase in spleens and mesenteric lymph nodes was observed | 704 ± 148 | 1338 ± 311
